Patent publication US7645757B2, “Derivatives of heteroaryl-alkylcarbamates, methods for their preparation and use thereof as fatty acid amido hydrolase enzyme inhibitors” (sanofi-aventis, priority 2004, dated 2010)
pIC50: −log10 of the molar value.

Experiments:
male OF1 mice = assay: test for analgesia: PBQ (phenylbenzoquinone)-induced abdominal tractions; assay type: in vivo; conditions: 10 mg/kg p.o.
Procedure: The in vivo activity of the compounds of the invention was evaluated in a test for analgesia. Thus, the intraperitoneal (i.p.) administration of PBQ (phenylbenzoquinone, 2 mg/kg in a 0.9% sodium chloride solution comprising 5% of ethanol) to male OF1 mice weighing 25 to 30 g causes abdominal tractions, on average 30 twisting or contracting motions during the period from 5 to 15 minutes after injection. The test compounds are administered, orally (p.o.) or intraperitoneally (i.p.) in suspension in 0.5% Tween 80, 60 minutes or 120 minutes before the administration of PBQ. Under these conditions, the most powerful compounds of the invention reduce by 35 to 70% the number of tractions induced by the PBQ, within a range of doses of between 1 and 30 mg/kg.

[1] = biological target: T1, enzyme FAAH (Fatty Acid amido Hydrolase) (Mus musculus, UniProt O08914); assay: radioenzymatic test of FAAH inhibition (hydrolysis of ((1-3H)ethanolamine)-anandamide by mouse brain membrane homogenates); assay type: biochemical; conditions: 10 μM anandamide, 15 minutes at 25° C., read-out: IC50 (concentration which inhibits the control enzymatic activity of FAAH by 50%)
T1 construct: The membrane homogenates are prepared at the time of use by homogenization of the tissues with a Polytron; from tissue; host or cells: mouse brain (minus the cerebellum), membrane homogenate
T1 sequence (O08914 1-579): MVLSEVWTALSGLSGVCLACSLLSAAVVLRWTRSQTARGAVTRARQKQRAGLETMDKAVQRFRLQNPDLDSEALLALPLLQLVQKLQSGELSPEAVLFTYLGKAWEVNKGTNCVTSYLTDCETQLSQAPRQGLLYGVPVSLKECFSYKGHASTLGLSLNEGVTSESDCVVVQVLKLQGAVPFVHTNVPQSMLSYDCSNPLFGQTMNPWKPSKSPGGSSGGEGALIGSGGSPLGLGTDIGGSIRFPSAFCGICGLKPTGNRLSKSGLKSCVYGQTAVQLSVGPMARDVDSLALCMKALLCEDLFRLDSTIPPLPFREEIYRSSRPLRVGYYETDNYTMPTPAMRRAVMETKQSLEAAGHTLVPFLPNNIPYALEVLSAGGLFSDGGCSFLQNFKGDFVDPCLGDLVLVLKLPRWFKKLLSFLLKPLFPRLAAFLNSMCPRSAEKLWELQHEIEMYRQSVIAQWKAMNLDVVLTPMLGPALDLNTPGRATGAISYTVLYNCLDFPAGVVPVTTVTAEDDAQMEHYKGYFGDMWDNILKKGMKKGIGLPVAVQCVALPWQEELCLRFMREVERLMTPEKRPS
Procedure: The compounds of the invention have formed the subject of pharmacological trials which make it possible to determine their inhibitory effect on the enzyme FAAH (Fatty Acid amido Hydrolase).
Thus, mouse brains (minus the cerebellum) are removed and stored at −80° C. The membrane homogenates are prepared at the time of use by homogenization of the tissues with a Polytron in a 10 mM Tris-HCl buffer (pH 8.0) comprising 150 mM NaCl and 1 mM EDTA. The enzymatic reaction is subsequently carried out in 70 μl of buffer comprising bovine serum albumin free from fatty acids (1 mg/ml). The test compounds, at various concentrations, the ((1-^3H)ethanolamine)-anandamide (specific activity of 15-20 Ci/mmol), diluted to 10 μM with non-radiolabelled anandamide, and the membrane preparation (400 μg of frozen tissue per assay) are successively added. After 15 minutes at 25° C., the enzymatic reaction is halted by addition of 140 μl of chloroform/methanol (2:1). The mixture is stirred for 10 minutes and is then centrifuged at 3500 g for 15 minutes. An aliquot (30 μl) of the aqueous phase comprising the (1-^3H)ethanolamine is counted by liquid scintillation.

Row | melting point [°C] | Compound | also measured
1 | 64 to 67 | CNC(=O)COC(=O)NCCCCn1ccc2ccccc21 [Compound 56, 2-(methylamino)-2-oxoethyl 4-(1H-indol-1-yl)butylcarbamate] | –
2 | 52 to 54 | CNC(=O)COC(=O)NCCCCn1ccc2cccnc21 [Compound 58, 2-(methylamino)-2-oxoethyl 4-(1H-pyrrolo[2,3-b]pyrid-1-yl)butylcarbamate] | –
3 | 105 to 108 | NC(=O)COC(=O)NCCCC#Cc1cccc2ccccc12 [Compound 71, 2-amino-2-oxoethyl [5-(naphth-1-yl)pent-4-yn-1-yl]carbamate] | –

Continued, molecule first:

Row | Compound | melting point [°C] | also measured
4 | CNC(=O)COC(=O)NCCc1ccc(-c2ccccc2)nc1 [Compound 3, 2-(methylamino)-2-oxoethyl 2-(6-phenylpyrid-3-yl)ethylcarbamate] | 130 to 132 | –
5 | CNC(=O)COC(=O)NCCCc1cc(-c2ccc(Cl)cc2)ncn1 [Compound 20, 2-(methylamino)-2-oxoethyl 3-[6-(4-chlorophenyl)pyrimidin-4-yl]propylcarbamate] | 147 to 149 | –
6 | CNC(=O)COC(=O)NCCCc1cc(-c2ccc(Cl)cc2)no1 [Compound 29, 2-(methylamino)-2-oxoethyl 3-[3-(4-chlorophenyl)isoxazol-5-yl]propylcarbamate] | 158 to 160 | –
7 | CNC(=O)COC(=O)NCCCCc1cc(-c2ccc(Cl)cc2)no1 [Compound 48, 2-(methylamino)-2-oxoethyl 4-[3-(4-chlorophenyl)isoxazol-5-yl]butylcarbamate] | – | reduction of the number of tractions induced by the PBQ (male OF1 mice; administered 60 minutes before PBQ): 53%; reduction of the number of tractions induced by the PBQ (male OF1 mice; administered 120 minutes before PBQ): 62%
8 | NC(=O)COC(=O)NCCCCCc1cncc2ccccc12 [Compound 68, 2-amino-2-oxoethyl 5-(isoquinolin-4-yl)pentylcarbamate] | – | pIC50 [1]: 6.57
9 | NC(=O)COC(=O)NCCCCc1ccncc1 [Compound 37, 2-amino-2-oxoethyl 4-(pyrid-4-yl)butylcarbamate] | 124 to 126 | –
10 | CNC(=O)COC(=O)NCCCc1cc(-c2ccc(-c3ccccc3)cc2)no1 [Compound 30, 2-(methylamino)-2-oxoethyl 3-[3-(4-phenylphenyl)isoxazol-5-yl]propylcarbamate] | 198 to 200 | –
